The target of test [1] is T1, Cupid (Streptomyces avidinii, UniProt P22629, E125D/E140N/N47D/N73G/R108K/R127K/S51D/S69N/Y107S/Y46S).
T1 construct: fused on or other part: Anti-CEACAM5 scFv antibody ST03 fused to Cupid as the molecular probe (ST03-Cupid = anti-CEA-Cupid = 'CEA-Cupid'); 6xHis tag at the C-terminus
Description: Affinity to Cupid, SPR kinetics analysis (Biacore T200, Single Cycle Kinetics, CEA-Cupid immobilized). It counts as binding. On the procedure: (§1) In order to examine the affinity of Zephyr1 and Zephyr2 to Cupid, kinetics analysis was carried out using SPR (Biacore T200). Specifically, using Amin Coupling Kit (GE Healthcare), CEA-Cupid serving as a ligand was immobilized on Sensor Chip CM5 (GE Healthcare), targeting 5000RU. Thereafter, using 5 two-fold serial dilutions (from 10 nM) of Zephyr1 or Zephyr2 serving as an analyte, kinetics analysis was carried out according to a Single Cycle Kinetics method. Thereafter, using Biacore T200 Evaluation Software, version 2.0 (GE Healthcare), the obtained data were fitted at a Bivalent Analyte mode, and kinetic parameters were calculated. As a result, Zephyr1: ka=3.792E+4, kd=4.42E−6 (FIG. 3A); and Zephyr2: ka=1.578E+7, kd=0.09339 (FIG. 3B).

Test [2] deals with T2, Cupid (Streptomyces avidinii, UniProt P22629, Y46S/N47D/S51D/S69N/N73G/Y107S/R108K/E125D/R127K/E140N).
T2 construct: fused on or other part: Anti-CEACAM5 scFv antibody ST03 fused to Cupid as the molecular probe (ST03-Cupid = anti-CEA-Cupid = 'CEA-Cupid'); 6xHis tag at the C-terminus
T2 sequence (P22629 whole entry Y46S/N47D/S51D/S69N/N73G/Y107S/R108K/E125D/R127K/E140N, looked up, the tested form may be a part): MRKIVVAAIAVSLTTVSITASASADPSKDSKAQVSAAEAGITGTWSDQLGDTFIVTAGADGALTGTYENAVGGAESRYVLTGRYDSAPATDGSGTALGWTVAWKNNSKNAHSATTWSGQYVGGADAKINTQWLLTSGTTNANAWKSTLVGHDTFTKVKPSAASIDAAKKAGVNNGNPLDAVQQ
Described as above. The test is classed as binding. The conditions noted are these: for ka / kd: Bivalent Analyte fit. On the procedure: as §1

The subject of test [3] is [^125I]ST03-Cupid. Description: In vivo test of clearing agent: change in blood radioactivity concentration of [^125I]ST03-Cupid in mice. The note with it: mouse blood. On the procedure: In order to examine the efficacy of Compound 14 (Zephyr1), ^125I-labeled ST03-Cupid ([^125I]ST03-Cupid) was administered to male mice via single intravenous administration, and the blood was then collected over time, so that a change in the blood radioactivity concentration caused by administration of Compound 14 was measured. Specifically, four experimental groups were prepared. In a first group, Compound 14 was administered to the mice via single intravenous administration, 6 hours after administration of [^125I]ST03-Cupid. A second group was defined as a control group for the first group, and a normal saline was administered to the mice, instead of Compound 14. In a third group, Compound 14 was administered to the mice via single intravenous administration, 24 hours after administration of [^125I]ST03-Cupid. A fourth group was defined as a control group for the third group, and a normal saline was administered to the mice, instead of Compound 14.
Specifically, with regard to administration of [^125I]ST03-Cupid to the mice, 100 μL of [^125I]ST03-Cupid was administered in a concentration of 50 kBq/100 μL to the mice via single intravenous administration ([…]/50 kBq/100 μL injection). Thereafter, 6 hours or 24 hours after administration of [^125I]ST03-Cupid, Compound 14 was administered to the mice in an amount of 2 times the number of moles of the administered ST03-Cupid ([…]/100 μL injection), or 100 μL of a normal saline was administered to the mice. It is to be noted that the experiments were carried out using the mice groups (n=4 to 6 in each group).
The blood was collected from the orbital vein of the mice over time. When Compound 14 was administered to the mice 6 hours after administration of [^125I]ST03-Cupid, blood collection was carried out with the following time intervals: first blood collection—10 minutes after administration of [^125I]ST03-Cupid, second blood collection—6 hours after administration of [^125]ST03-Cupid, third blood collection—10 minutes after administration of Saline or Compound 14, fourth blood collection—1 hour after administration of Saline or Compound 14, fifth blood collection—3 hours after administration of Saline or Compound 14, sixth blood collection—18 hours after administration of Saline or Compound 14, and seventh blood collection—24 hours after administration of Saline or Compound 14. Likewise, when Compound 14 was administered to the mice 24 hours after administration of [^125I]ST03-Cupid, blood collection was carried out with the following time intervals: first blood collection—10 minutes after administration of [^125]ST03-Cupid, second blood collection—24 hours after administration of [^125I]ST03-Cupid, third blood collection—10 minutes after administration of Saline or Compound 14, fourth blood collection—1 hour after administration of Saline or Compound 14, fifth blood collection—3 hours after administration of Saline or Compound 14, sixth blood collection—6 hours after administration of Saline or Compound 14, and seventh blood collection—24 hours after administration of Saline or Compound 14. The collected blood (40 to 50 μL) was measured using a gamma counter. The counting rate (dmp) measured with the gamma counter was divided by the amount of blood collected (g) to calculate a counting rate (dpm/g of blood) per unit weight, and the results were shown in a graph. Likewise, the counting rate (dmp) measured with the gamma counter was divided by the counting rate of [^125I]ST03-Cupid before administration, so as to calculate the remaining percentage (% ID/g of blood) in the dose after the administration. The results were shown in a graph. The measurement results are shown in Tables 1 and 2 and FIGS. 1 and 2.

The subject of test [4] is CEA-Cupid. Description: Clearance of Cupid by Zephyr2 in vivo, xenograft mouse models, blood radioactivity of Psyche-B-DOTA(^111In). The conditions noted are these: Zephyr2 20 hours after CEA-Cupid; Psyche-B-DOTA(111In) two hours later; blood collected 4 hours after labeling substance. On the procedure:
A 100 mM acetate buffer was added to ^111InCl3 solution 37 MBq (approx. […]) in the same volume as the ^111InCl3 solution, and the pH of the mixed solution was then adjusted to pH 4 to 5. Psyche-B-DOTA was added to the mixed solution at a molar ratio of 1000 times (10 nmol), such that the concentration of DMSO became 0.2% or more. The thus obtained mixture was heated at 80° C. for 15 minutes or more. Thereafter, the reaction mixture was analyzed according to HPLC, and the radiochemical purity was confirmed. The mixture was diluted with a 10 mM acetate buffer to a concentration of 1 nmol/mL, and the obtained solution was used as an administration solution.
Whether or not Cupid existing in the blood of a living body is cleared by Zephyr2 was examined by performing an experiment using xenograft mouse models. The experiment was carried out using three mice from a Zephyr2 administration group and three mice from a non-administration group (control group). Specifically, […] CEA-Cupid was administered to the xenograft mouse models, and 20 hours after the administration of CEA-Cupid, 100 μmol Zephyr2 was administered (the control group was untreated). […] Subsequently, 4 hours after the administration of the labeling substance, the blood was collected, and the amount of radioactivity therein was then measured using a gamma counter. […]

The mark [5] stands for this setting: CA given 6 hr after [125I]ST03-Cupid, time 0.17 hr (before CA).
Where [6] appears, read: CA given 6 hr after [125I]ST03-Cupid, time 5.92 hr (before CA).
The mark [7] stands for this setting: CA given 6 hr after [125I]ST03-Cupid, time 6.17 hr.
Where [8] appears, read: CA given 6 hr after [125I]ST03-Cupid, time 7 hr.
[9] abbreviates: CA given 6 hr after [125I]ST03-Cupid, time 9 hr.
Setting [10] is: CA given 6 hr after [125I]ST03-Cupid, time 24 hr.
Where [11] appears, read: CA given 6 hr after [125I]ST03-Cupid, time 30 hr.
The mark [12] stands for this setting: CA given 24 hr after [125I]ST03-Cupid, time 0.17 hr (before CA).
Setting [13] is: CA given 24 hr after [125I]ST03-Cupid, time 23.92 hr (before CA).
Where [14] appears, read: CA given 24 hr after [125I]ST03-Cupid, time 24.17 hr.
Setting [15] is: CA given 24 hr after [125I]ST03-Cupid, time 25 hr.
[16] abbreviates: CA given 24 hr after [125I]ST03-Cupid, time 27 hr.
Setting [17] is: CA given 24 hr after [125I]ST03-Cupid, time 30 hr.
The mark [18] stands for this setting: CA given 24 hr after [125I]ST03-Cupid, time 48 hr.

T1 sequence (P22629 whole entry E125D/E140N/N47D/N73G/R108K/R127K/S51D/S69N/Y107S/Y46S, looked up, the tested form may be a part): as the sequence (P22629 whole entry Y46S/N47D/S51D/S69N/N73G/Y107S/R108K/E125D/R127K/E140N, looked up, the tested form may be a part) above

`CC(=O)NC1C(SCCC(=O)NCCOCCOCCNC(=O)CCC(CCC(=O)NCCOCCOCCNC(=O)CCSC2OC(CO)C(O)C(O)C2NC(C)=O)(CCC(=O)NCCOCCOCCNC(=O)CCSC2OC(CO)C(O)C(O)C2NC(C)=O)NC(=O)OCCOCCOCCn2cc(COCCNC(=O)c3cc(NC(=O)CCCCCNC(=O)CCCC[C@@H]4SC[C@@H]5NC(=N)N[C@@H]54)cc(NC(=O)CCCCCNC(=O)CCCC[C@@H]4SC[C@@H]5NC(=N)N[C@@H]54)c3)nn2)OC(CO)C(O)C1O` (stereo partly drawn) [Compound 14] registered a Kd in test [1] of 0.117 nM. This molecule registered a ka in test [2] (SPR) of 3.792E+4. This molecule gave a kd in test [2] (SPR) of 4.42E−6. The “% Injected Dose/g of blood” value in test [3] (setting [5]) was 31.7 ± 3.6 % Injected Dose/g of blood; in test [3] (setting [6]), 16.6 ± 2.2 % Injected Dose/g of blood; in test [3] (setting [7]), 6.2 ± 1.8 % Injected Dose/g of blood; in test [3] (setting [8]) it was 4.8 ± 1.6 % Injected Dose/g of blood; in test [3] (setting [9]), 4.4 ± 1.6 % Injected Dose/g of blood; in test [3] (setting [10]), 2.4 ± 0.8 % Injected Dose/g of blood. The “% Injected Dose/g of blood” value in test [3] (setting [11]) is given as 2.0 ± 0.7 % Injected Dose/g of blood; in test [3] (setting [12]), 33.8 ± 2.5 % Injected Dose/g of blood; in test [3] (setting [13]), 6.2 ± 0.9 % Injected Dose/g of blood; in test [3] (setting [14]), 0.4 ± 0.1 % Injected Dose/g of blood; in test [3] (setting [15]) it was 0.4 ± 0.1 % Injected Dose/g of blood; in test [3] (setting [16]), 0.6 ± 0.1 % Injected Dose/g of blood. For the same molecule, the “% Injected Dose/g of blood” value in test [3] (setting [17]) is listed as 0.6 ± 0.2 % Injected Dose/g of blood; in test [3] (setting [18]), 0.5 ± 0.1 % Injected Dose/g of blood. Further, the Radioactivity concentration in test [3] (setting [5]) was 599504 ± 68046 dpm/g; in test [3] (setting [6]) it was 312854 ± 42382 dpm/g; in test [3] (setting [7]), 117840 ± 34798 dpm/g; in test [3] (setting [8]), 90787 ± 29628 dpm/g; in test [3] (setting [9]), 83236 ± 29606 dpm/g; in test [3] (setting [10]), 46178 ± 15340 dpm/g. Further, the Radioactivity concentration came to 37023 ± 13443 dpm/g in test [3] (setting [11]); 638296 ± 48098 dpm/g in test [3] (setting [12]); 116201 ± 17325 dpm/g in test [3] (setting [13]); 8368 ± 1872 dpm/g in test [3] (setting [14]); 7381 ± 1798 dpm/g in test [3] (setting [15]); 10748 ± 2533 dpm/g in test [3] (setting [16]). Also, the values for the Radioactivity concentration in test [3] (setting [17]) and in test [3] (setting [18]) were 12088 ± 3191 dpm/g and 9001 ± 1942 dpm/g, respectively.
On to `COC(=O)C(CCCCNC(=O)c1cc(NC(=O)NCCOCCOCCNC(=O)CCc2cn(CCOCCOCCOC(=O)NC(CCC(=O)NCCOCCOCCNC(=O)CCSC3OC(CO)C(O)C(O)C3NC(C)=O)(CCC(=O)NCCOCCOCCNC(=O)CCSC3OC(CO)C(O)C(O)C3NC(C)=O)CCC(=O)NCCOCCOCCNC(=O)CCSC3OC(CO)C(O)C(O)C3NC(C)=O)nn2)cc(C(=O)NCCCCC(NC(=O)CCCCC2SCC3NC(=N)NC32)C(=O)OC)c1)NC(=O)CCCCC1SCC2NC(=N)NC21` (stereo not drawn) [Compound 25], for which, in test [2] (SPR), the ka stood at 1.578E+7 and the kd is on record as 0.09339. The Kd in test [2] (SPR, printed as KD=ka/kd) turned out to be 5.88 nM. Moreover, the “affinity to Cupid reduced in comparison to that of Zephyr1” value in test [2] (ratio of KD values) is given as “approximately one fiftieth”. In addition, the “amount of radioactivity in blood” value in test [4] turned out to be 4.51 % ID/g.

As usually defined, the Kd is the equilibrium constant for the complex coming apart. A higher Kd goes with lower affinity.

(Values after patent US11866457B2, “Clearing agent” (SAVID THERAPEUTICS INC., priority 2016, dated 2024).)
